Source: patent US20060252774A1, “Regulation of type 5 adenylyl cyclase for treatment of neurodegenerative and cardiac diseases” (priority 2002, published 2006)
“Also recorded” adds a separate entry of the source. Blank lines part the entries; values can stand above or below the compound they belong to.

Experiments:
[1] = molecular target: T1, AC3 (Rattus norvegicus, UniProt P21932); test: Adenyl cyclase stimulation by forskolin derivatives, High five cell membranes overexpressing type III; format: biochemical; conditions: 5 mM MgCl2
T1 sequence (P21932 1-1144): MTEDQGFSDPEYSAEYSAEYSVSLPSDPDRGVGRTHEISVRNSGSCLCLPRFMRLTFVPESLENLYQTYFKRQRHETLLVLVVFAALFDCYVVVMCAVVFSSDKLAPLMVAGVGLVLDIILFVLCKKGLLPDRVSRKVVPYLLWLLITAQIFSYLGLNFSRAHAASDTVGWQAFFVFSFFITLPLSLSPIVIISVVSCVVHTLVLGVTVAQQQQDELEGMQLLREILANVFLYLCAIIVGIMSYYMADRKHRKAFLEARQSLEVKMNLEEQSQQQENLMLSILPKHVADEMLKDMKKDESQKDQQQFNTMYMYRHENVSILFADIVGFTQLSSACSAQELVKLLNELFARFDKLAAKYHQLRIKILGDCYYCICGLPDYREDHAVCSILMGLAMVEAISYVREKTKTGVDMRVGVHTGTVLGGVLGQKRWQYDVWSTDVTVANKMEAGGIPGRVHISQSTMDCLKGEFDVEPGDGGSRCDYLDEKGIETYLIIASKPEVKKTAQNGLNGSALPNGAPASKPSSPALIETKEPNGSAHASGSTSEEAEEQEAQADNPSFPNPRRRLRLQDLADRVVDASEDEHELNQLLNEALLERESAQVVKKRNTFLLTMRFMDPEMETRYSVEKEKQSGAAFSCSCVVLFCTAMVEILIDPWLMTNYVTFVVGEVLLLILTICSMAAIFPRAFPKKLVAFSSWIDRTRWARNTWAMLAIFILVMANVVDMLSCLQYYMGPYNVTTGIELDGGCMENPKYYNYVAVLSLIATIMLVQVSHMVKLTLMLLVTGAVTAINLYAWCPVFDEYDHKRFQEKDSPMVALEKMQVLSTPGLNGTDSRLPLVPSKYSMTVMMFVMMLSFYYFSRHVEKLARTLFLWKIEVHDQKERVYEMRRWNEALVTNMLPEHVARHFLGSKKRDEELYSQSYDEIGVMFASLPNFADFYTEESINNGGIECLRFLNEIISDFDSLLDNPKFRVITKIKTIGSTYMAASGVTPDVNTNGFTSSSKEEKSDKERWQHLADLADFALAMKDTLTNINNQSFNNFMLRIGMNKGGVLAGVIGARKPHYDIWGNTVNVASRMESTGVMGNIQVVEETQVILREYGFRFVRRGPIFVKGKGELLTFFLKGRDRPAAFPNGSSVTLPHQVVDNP
Description: (§1) FIG. 15: Effect of forskolin, 6[3-(dimethylamino)propionyl]-14,15-dihydroforskolin, and NKH477 on adenyl cyclase [isforms.] isoforms: Forskolin derivatives dose response effect (A-C). High five cell membranes overexpressing type II (A), type III (B), and type V (C) adenyl cyclases. Adenyl cyclase activity was measured in the presence of 5 mM of MgCl2 with various concentrations of forskolin (closed circles), 6[3-(dimethylamino)propionyl]-14,15-dihydroforskolin (D, open triangles) or NKH477 (open circles). Means±SEM from 4 independent experiments are shown. *, p<0.01 differences from the value with forskolin.

[2] = molecular target: T2, AC5 (Canis lupus familiaris, UniProt P30803); test: Adenyl cyclase stimulation by forskolin derivatives, High five cell membranes overexpressing type V; format: biochemical; design: made in house; host or cells: High Five insect cells (membranes)
T2 sequence (P30803 whole entry): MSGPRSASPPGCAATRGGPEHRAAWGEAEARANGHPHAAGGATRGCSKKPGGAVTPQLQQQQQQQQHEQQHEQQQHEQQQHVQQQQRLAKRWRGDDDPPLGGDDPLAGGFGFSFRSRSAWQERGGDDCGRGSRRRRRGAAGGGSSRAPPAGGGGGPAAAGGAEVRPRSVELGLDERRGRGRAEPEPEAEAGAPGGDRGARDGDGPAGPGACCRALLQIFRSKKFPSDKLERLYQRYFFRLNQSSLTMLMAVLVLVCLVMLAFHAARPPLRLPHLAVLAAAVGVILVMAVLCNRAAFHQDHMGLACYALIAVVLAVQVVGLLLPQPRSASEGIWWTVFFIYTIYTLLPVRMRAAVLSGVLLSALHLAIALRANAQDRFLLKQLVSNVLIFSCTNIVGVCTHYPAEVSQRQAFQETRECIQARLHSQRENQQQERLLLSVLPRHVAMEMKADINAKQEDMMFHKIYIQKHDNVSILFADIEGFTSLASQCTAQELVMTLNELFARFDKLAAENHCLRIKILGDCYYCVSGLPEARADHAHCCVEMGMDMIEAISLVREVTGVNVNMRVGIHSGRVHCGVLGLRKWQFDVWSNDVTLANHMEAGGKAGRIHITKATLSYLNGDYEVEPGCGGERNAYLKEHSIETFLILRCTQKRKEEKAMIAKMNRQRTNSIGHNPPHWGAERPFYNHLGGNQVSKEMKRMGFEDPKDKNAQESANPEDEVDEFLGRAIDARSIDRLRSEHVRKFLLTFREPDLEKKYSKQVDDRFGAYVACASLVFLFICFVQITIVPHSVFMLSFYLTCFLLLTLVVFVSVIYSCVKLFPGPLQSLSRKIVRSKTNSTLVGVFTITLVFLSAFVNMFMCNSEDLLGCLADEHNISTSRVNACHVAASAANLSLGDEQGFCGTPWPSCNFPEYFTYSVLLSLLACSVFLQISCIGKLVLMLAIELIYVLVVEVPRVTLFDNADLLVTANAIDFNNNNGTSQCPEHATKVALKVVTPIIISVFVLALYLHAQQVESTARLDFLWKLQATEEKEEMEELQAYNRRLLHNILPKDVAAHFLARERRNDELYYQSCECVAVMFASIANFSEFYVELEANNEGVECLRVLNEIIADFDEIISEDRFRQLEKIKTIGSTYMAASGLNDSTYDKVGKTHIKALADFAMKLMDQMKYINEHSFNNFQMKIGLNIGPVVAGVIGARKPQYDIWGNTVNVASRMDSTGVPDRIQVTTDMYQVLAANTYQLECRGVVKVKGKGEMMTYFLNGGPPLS
Description: as §1

[3] = molecular target: T3, AC2 (Rattus norvegicus, UniProt P26769); test: Adenyl cyclase stimulation by forskolin derivatives, High five cell membranes overexpressing type II; format: biochemical; design: made in house; host or cells: High Five insect cells (membranes); conditions: 5 mM MgCl2
T3 sequence (P26769 whole entry): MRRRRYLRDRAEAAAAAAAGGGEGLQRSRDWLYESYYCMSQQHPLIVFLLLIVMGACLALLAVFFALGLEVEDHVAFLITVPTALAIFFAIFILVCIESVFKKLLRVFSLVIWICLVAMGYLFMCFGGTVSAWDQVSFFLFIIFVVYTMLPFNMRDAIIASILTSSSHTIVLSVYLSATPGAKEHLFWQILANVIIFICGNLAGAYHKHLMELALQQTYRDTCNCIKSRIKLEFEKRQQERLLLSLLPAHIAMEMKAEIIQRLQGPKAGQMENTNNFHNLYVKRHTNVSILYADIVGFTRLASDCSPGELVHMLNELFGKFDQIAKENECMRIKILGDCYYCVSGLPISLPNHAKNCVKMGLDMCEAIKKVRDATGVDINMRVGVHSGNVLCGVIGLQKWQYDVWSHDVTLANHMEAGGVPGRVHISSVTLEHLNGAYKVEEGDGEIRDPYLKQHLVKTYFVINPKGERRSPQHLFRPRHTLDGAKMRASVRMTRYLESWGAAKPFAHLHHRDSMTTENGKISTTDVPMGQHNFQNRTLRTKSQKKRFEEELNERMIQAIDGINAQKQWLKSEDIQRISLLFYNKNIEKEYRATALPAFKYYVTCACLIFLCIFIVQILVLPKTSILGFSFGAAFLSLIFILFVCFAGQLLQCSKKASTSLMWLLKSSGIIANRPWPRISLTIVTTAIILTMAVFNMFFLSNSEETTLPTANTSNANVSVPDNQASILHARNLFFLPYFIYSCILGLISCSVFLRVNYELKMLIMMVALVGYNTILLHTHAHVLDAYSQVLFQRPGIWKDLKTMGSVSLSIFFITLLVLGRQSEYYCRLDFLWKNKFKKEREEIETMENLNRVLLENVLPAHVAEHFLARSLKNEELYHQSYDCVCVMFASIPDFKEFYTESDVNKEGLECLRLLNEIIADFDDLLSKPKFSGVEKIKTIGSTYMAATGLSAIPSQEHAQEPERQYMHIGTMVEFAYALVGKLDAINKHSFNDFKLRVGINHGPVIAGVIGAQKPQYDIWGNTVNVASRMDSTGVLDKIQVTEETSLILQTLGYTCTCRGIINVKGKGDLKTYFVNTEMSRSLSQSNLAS
Description: as §1

[4] = molecular target: T2, AC5; design: made in house; host or cells: High Five insect cells (membranes); conditions: previously reported; potency on AC2 and AC3 remained similar; cited from earlier work
[5] = molecular target: T1, AC3; test: AC catalytic activity inhibition, AC3 isoform; format: biochemical; conditions: for IC50: 5 mM MgCl2 with Gsalpha/GTPgammaS/forskolin (50 micro M)
Source text: (§2) Classic inhibitors of AC include adenosine analogs or P-site inhibitors, and MDL12330A, a non-nucleic acid inhibitor.
(§3) Inventors will first determine the selectivity among the AC isoforms (FIG. 12).

[6] = molecular target: T3, AC2; test: AC catalytic activity inhibition, AC2 isoform; format: biochemical
Source text: as §2, §3

[7] = tested on: H9C2 cells; test: cAMP accumulation in H9C2 cells; format: cell-based; conditions: 10 micro M forskolin and isoproterenol; compound 10 micro M
Description: FIG. 10: Effect of NKY80 and HI30435 on cAMP accumulation in H9C2 cells.[:] H9C2 cells were incubated in the presence of 10 micro M forskolin and isoproterenol and NKY80 or HI30435 (10 micro M), followed by cAMP accumulation assays (n=4-5, p<0.01).
(§4) Inventors will first determine the selectivity among the AC isoforms (FIG. 12). […] The IC50 values were calculated to be 0.32 micro M for AC5, 11.1 micro M for AC3, 65.3 micro M for AC2. The selectivity ratio of HI30435 was 207 between AC5 and AC2. […] The selectivity ratio was 18 between AC5 and AC2.

[8] = tested on: AC5; test: AC catalytic activity inhibition, AC5 isoform; format: biochemical; conditions: for selectivity ratio between AC5 and AC2: inhibition of AC catalytic activity
Source text: (§5) FIG. 11. […] The relative inhibitory activity versus control (% control activity) for various AC isoforms are shown. Data are means±S.D. of quadruplicate determinations.
(§6) Classic inhibitors of AC include adenosine analogs or P-site inhibitors, and MDL12330A, a non-nucleic acid inhibitor. However, not much was known about the isoform selectivity of these inhibitors. […] It was previously noted that AC2 was less sensitive to THFA than the other isoforms, giving a selectivity ratio of 1.8 when compared between AC6 and AC2.
as §4

[9] = molecular target: T2, AC5; test: AC catalytic activity inhibition, AC5 isoform; format: biochemical; design: IC50 for AC5; other: 5 mM MgCl2 with Gsalpha/GTPgammaS/forskolin (50 micro M); other: in the presence of Gsalpha/GTPgammaS/forskolin; other: 10 micro M; conditions: for IC50: 5 mM MgCl2 with Gsalpha/GTPgammaS/forskolin (50 micro M)
Source text: as §5, §6, §4

[10] = tested on: WT and AC5KO mice; test: Locomotor activity test with dopaminergic agonists; format: in vivo, mouse; conditions: subcutaneous, SKF38393 25 or 50 mg/kg, cabergoline 0.2 or 1.0 mg/kg
Description: FIG. 27. Motor dysfunction in ACD-^−/− mice. Rotarod test (A)—Each mouse was placed on a 3.5-cm diameter rod covered with rubber to evaluate rotarod performance (14). Mice were left for 1 minute on the rod for habituation. The rod rotated gradually increasing from 4 to 40 rpm over the course of 5 min and the time that mice could stay on an accelerating rotarod without failing was recorded. Five trials were conducted for each individual 10-25 min apart within the dark phase of the light/dark cycle. Mice that stayed on the rotarod for >300 sec were considered complete responders, and their latencies were recorded as 300 sec. *p<0.05, relative to ^+/+; ^+/−, n=17-20. […] Locomotor activity (B) was assessed using an activity monitor equipped with photocell beams (Columbus Instruments, Ohio, USA). The number of photobeam interruptions in each perpendicular axis was recorded and totaled for 5 min. The behavior of the mice was recorded simultaneously by video camera for later analysis, and their rearing actions were counted (C). *p<0.05, relative to ^+/+, n=15-20. […] The time until it turned completely downward (open bars, Tturn) and the time until it climbed down to the floor (closed bars, TLA) were measured *p<0.01, relative to ^+/+, n=14-17. […]
FIG. 32. […] In rotarod test, the best performance out of five trials in each individual was evaluated. […]

[11] = tested on: WT and AC5KO mice; test: Pole test with dopaminergic agonists; format: in vivo, mouse; conditions: subcutaneous
Description: (§7) FIG. 27. Motor dysfunction in ACD-^−/− mice. Rotarod test (A)—Each mouse was placed on a 3.5-cm diameter rod covered with rubber to evaluate rotarod performance (14). Mice were left for 1 minute on the rod for habituation. The rod rotated gradually increasing from 4 to 40 rpm over the course of 5 min and the time that mice could stay on an accelerating rotarod without failing was recorded. Five trials were conducted for each individual 10-25 min apart within the dark phase of the light/dark cycle. Mice that stayed on the rotarod for >300 sec were considered complete responders, and their latencies were recorded as 300 sec. *p<0.05, relative to ^+/+; ^+/−, n=17-20. Activity tests (B and C)—The tests were performed as previously described (14, 15). Mice were put in the darkened testing room 60 minutes for habituation before testing. Locomotor activity (B) was assessed using an activity monitor equipped with photocell beams (Columbus Instruments, Ohio, USA). The number of photobeam interruptions in each perpendicular axis was recorded and totaled for 5 min. The behavior of the mice was recorded simultaneously by video camera for later analysis, and their rearing actions were counted (C). *p<0.05, relative to ^+/+, n=15-20. Pole test (D)—In order to evaluate bradykinesia, pole test was performed (16). In brief, mice were placed head upward on the top of a rough-surfaced pole (8 mm in diameter and 50 cm in height) that was wrapped with gauze to prevent slipping. The time until it turned completely downward (open bars, Tturn) and the time until it climbed down to the floor (closed bars, TLA) were measured *p<0.01, relative to ^+/+, n=14-17. Means±SEM are shown. Homozygous to (ACD^−/−) (closed circles, ^−/−), heterozygous (shaded circles, ^+/−), and wild type (WT) (open circles, ^+/+).
(§8) FIG. 32. Effect of dopaminergic agonists on motor functions Effects of SKF38393 on locomotor activity (A), rotarod test (B), and pole test (C) were compared. […] In rotarod test, the best performance out of five trials in each individual was evaluated. […]

[12] = tested on: WT and AC5KO mice; test: Rotarod test with dopaminergic agonists; format: in vivo, mouse; conditions: WT and AC5KO; subcutaneous; 25 or 50 mg/kg
Description: as §7, §8

[13] = tested on: striatal AC; test: D1 or D2 receptor agonist-stimulated AC activity in striatal membrane preparations; format: biochemical, mouse; conditions: WT striatal membranes; 1 μM
Description: AC catalytic activity was compared as previously described (15) using the membrane preparations from the striatum, cortex and cerebellum A). AC assays were conducted in the presence of 50 μM forskolin. […] D1 or D2 receptor agonist-stimulated AC activity was also examined (C). […] Each AC catalytic activity was compared to that in the presence of 10 μM GTP alone. Open bars, WT (^+/+); closed bars, AC5KO (^−/−). Means±SEM are shown. *p<0.05, **p<0.01, relative to ^+/+, n=4.
Striatal tissues were dissected from mice and membrane preparations were prepared for AC assays as previously described (10, 11).
We also examined receptor agonist-stimulated AC activity (FIG. 3C).

[14] = molecular target: AC6 (Homo sapiens, UniProt O43306); conditions: previously noted; cited from earlier work
AC6, sequence (O43306 whole entry): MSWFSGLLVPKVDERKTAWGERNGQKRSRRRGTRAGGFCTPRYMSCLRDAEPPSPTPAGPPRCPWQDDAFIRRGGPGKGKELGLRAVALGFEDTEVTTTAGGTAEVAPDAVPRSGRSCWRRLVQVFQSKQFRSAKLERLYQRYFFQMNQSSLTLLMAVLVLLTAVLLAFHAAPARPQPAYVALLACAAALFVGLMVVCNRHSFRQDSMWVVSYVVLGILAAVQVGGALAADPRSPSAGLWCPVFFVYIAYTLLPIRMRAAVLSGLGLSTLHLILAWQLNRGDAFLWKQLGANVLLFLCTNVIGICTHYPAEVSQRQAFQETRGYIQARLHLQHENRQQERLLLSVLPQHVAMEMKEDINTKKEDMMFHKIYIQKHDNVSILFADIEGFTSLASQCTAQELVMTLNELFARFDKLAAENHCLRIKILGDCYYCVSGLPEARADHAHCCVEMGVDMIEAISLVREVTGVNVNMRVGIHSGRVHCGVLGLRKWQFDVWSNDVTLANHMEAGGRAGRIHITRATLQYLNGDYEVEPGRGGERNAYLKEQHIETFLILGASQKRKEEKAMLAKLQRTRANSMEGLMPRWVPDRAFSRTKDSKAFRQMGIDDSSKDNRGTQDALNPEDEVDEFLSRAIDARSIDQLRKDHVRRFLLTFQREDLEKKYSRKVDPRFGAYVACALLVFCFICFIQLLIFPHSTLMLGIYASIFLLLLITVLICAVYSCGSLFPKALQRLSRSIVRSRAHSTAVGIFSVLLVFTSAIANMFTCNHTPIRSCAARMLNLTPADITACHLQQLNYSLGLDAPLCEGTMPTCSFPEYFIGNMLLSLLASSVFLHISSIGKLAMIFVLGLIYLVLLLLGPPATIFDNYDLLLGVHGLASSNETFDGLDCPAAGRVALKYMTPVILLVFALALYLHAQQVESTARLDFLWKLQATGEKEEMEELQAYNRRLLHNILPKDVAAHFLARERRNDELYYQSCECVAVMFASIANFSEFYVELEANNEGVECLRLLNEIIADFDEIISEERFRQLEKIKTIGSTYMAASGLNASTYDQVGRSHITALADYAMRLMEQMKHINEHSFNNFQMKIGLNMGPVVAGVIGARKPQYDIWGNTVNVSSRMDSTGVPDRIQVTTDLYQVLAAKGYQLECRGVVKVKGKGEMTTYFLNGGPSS

[15] = in the presence of Gsalpha/GTPgammaS/forskolin

SMILES: CCC1(C)CC(=O)C2(O)C(C)(O1)C(OC(C)=O)C(OC(=O)CCN(C)C)C1C(C)(C)CCC(O)C12C (centres unmarked) [6-3(dimethylaminopropionyl]-14,15-dihydroforskolin]
relative potency of stimulation versus forskolin, AC3 [1]: 31%
relative potency of stimulation versus forskolin, AC5 ([2]; 5 mM MgCl2): 139%
AC5 selectivity of stimulation (in words) ([2]; forskolin derivatives): further enhancement in selectivity for AC5
relative potency of stimulation versus forskolin, AC2 [3]: 66%

SMILES: C=C[C@@]1(C)CC(=O)[C@]2(O)[C@@]3(C)[C@@H](O)CCC(C)(C)[C@@H]3[C@H](OC(=O)CCN(C)C)[C@H](OC(C)=O)[C@@]2(C)O1 [NKH477]
stimulation of AC5 (in words) [4]: enhanced stimulation of AC5

SMILES: Nc1ncnc2c1ncn2C1CCCO1 (centres unmarked) [THFA, 9-(tetrahydro-2-furyl)adenine]
IC50 [5]: 101 µM
inhibition of AC3 (in words) [5, 15]: only to a modest degree
IC50 ([6]; 5 mM MgCl2 with Gsalpha/GTPgammaS/forskolin (50 micro M)): 285 µM
inhibition of AC2 (in words) [6, 15]: only to a modest degree
selectivity ratio between AC6 and AC2 [14]: 1.8
selectivity ratio between AC5 and AC2 [8]: 130
IC50 [9]: 2.2 µM
inhibition of AC5 (in words) [9, 15]: potently inhibited AC5

The next lines start with results.

IC50 [5]: 132 µM
IC50 ([6]; Gsalpha/GTPgammaS/forskolin): 1700 µM
IC50 [9]: 8.3 µM
SMILES: Nc1ncc2c(n1)CC(c1ccco1)CC2=O (centres unmarked) [NKY80, 2-amino-7-(2-furanyl)-7,8-dihydro-5(6H)-quinazolinone]
cAMP accumulation in H9C2 cells [7]: but not NKY80, inhibited cAMP accumulation; also recorded: did not
mode of inhibition ([8]; Lineweaver-Burk plot analysis): not competitive with respect to ATP or forskolin
selectivity ratio between AC5 and AC2 [8]: 210

stimulation of AC activity, increase over that with 10 μM GTP [13]: 40.7±2.6%
SMILES: Oc1cc2c(cc1O)C(c1ccccc1)CNCC2 (centres unmarked) [SKF38393]
locomotor activity [10]: increased locomotor activity in both WT and AC5KO
pole test performance [11]: improved pole test performance
rotarod performance [12]: did not improve rotarod performance in both WT and AC5KO
